Assay results: patent US20250059183A1, “PYRIDINE[4,3-D]PYRIMIDINE COMPOUND AS TLR7/8 AGONIST” (SHANGHAI VISONPHARMA CO., LTD., priority 2021, published 2025)

Target: T1, human TLR7 (Homo sapiens, UniProt Q9NYK1)
T1 construct: host or cells: HEK-Blue hTLR7 (HEK293-derived reporter cells)
T1 sequence (Q9NYK1 27-1049): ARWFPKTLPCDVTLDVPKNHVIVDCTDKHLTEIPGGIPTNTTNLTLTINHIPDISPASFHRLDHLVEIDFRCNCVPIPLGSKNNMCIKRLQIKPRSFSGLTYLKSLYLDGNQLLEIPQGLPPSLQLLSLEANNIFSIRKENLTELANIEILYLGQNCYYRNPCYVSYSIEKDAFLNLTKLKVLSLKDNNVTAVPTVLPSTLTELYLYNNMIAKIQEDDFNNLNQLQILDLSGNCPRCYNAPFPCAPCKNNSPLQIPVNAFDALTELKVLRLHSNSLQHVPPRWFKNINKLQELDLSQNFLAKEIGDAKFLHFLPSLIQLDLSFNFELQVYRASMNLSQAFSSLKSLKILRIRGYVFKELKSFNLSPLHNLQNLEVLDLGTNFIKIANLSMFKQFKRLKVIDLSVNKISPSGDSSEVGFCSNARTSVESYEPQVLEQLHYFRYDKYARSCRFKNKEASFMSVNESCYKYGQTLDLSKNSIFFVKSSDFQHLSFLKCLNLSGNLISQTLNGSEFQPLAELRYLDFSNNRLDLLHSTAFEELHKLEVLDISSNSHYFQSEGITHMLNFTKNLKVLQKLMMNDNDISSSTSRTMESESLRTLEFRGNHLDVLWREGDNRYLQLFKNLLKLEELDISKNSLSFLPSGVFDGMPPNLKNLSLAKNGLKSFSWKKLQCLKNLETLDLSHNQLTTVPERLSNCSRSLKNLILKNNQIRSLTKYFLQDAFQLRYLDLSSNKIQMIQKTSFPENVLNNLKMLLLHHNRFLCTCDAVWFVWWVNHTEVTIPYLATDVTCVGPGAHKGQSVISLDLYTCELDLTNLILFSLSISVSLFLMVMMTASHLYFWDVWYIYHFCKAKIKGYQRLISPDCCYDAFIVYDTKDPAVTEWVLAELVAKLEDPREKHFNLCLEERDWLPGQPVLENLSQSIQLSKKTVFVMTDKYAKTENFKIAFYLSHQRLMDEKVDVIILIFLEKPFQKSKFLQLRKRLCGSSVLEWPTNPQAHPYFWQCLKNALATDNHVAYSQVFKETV
Assay: HEK-Blue hTLR7 SEAP reporter gene agonist assay
Assay type: cell-based
Conditions: HEK-Blue hTLR7 cells, 16 to 22 hours incubation
Procedure: (§1) HEK-Blue™ cells that stably express human TLR7 or TLR8 are used to evaluate the agonistic activity of the compounds on TLR7 or TLR8, which is determined by the induction of the expression of SEAP reporter gene under the control of minimum IFN-β promoter fusion to 5×NF-κB and AP-1 binding sites. The assay is conducted as below:
(§2) HEK-Blue™ hTLR7 (Invivogen, 80,000 cells per well) or HEK-Blue™ hTLR8 (Invivogen, 60,000 cells per well) were added to the 96-well cell culture plate, followed by adding of the test compound. The final concentration of the test compound in the medium ranged from […], and was incubated for 16 to 22 hours. According to the manufacturer's instructions, the HEK-Blue assay reagent Quanti-blue (Invivogen) was used to measure SEAP levels in cell media. Optical density at 650 nm (OD650) was measured by Neo2 multifunction plate reader (Bio-tek). The half effective concentration (EC50) was calculated using GraphPad Prism.

Structure (SMILES) | EC50 [nM]
CCCC(CCC)Nc1nc(N)nc2ccn(Cc3ccc(C(=O)N4CCN(C)CC4)cc3)c(=O)c12 [Compound I-114, 2-amino-4-(heptan-4-ylamino)-6-(4-(4-methylpiperazine-1-carbonyl)benzyl)pyrido[4,3-d]pyrimidin-5(6H)-one] | 86
CCCCNc1nc(N)nc2ccn(Cc3ccc(CN4CCCC4)nc3OC)c(=O)c12 [Compound I-64, 2-amino-4-(butylamino)-6-((2-methoxy-6-(pyrrolidin-1-ylmethyl)pyridin-3-yl)methyl)pyrido[4,3-d]pyrimidin-5(6H)-one] | 67
CCCCNc1nc(N)nc2ccn(Cc3ccc(C(=O)N4CCN(C)CC4)cc3OC)c(=O)c12 [Compound I-73, 2-amino-4-(butylamino)-6-(2-methoxy-4-(4-methylpiperazine-1-carbonyl)benzyl)pyrido[4,3-d]pyrimidin-5(6H1)-one] | 41
CCCC(CCC)Nc1nc(N)nc2ccn(Cc3ccc(C(=O)N4CCN(CCO)CC4)cc3OC)c(=O)c12 [Compound I-136, 2-amino-4-(heptan-4-ylamino)-6-(4-(4-(2-hydroxyethyl)piperazine-1-carbonyl)-2-methoxybenzyl)pyrido[4,3-d]pyrimidin-5(6H)-one] | 70
CCCC(CCC)Nc1nc(N)nc2ccn(Cc3ccc(C(=O)N4CCN(C)CC4)cc3OC)c(=O)c12 [Compound I-133, 2-amino-4-(heptan-4-ylamino)-6-(2-methoxy-4-(4-methylpiperazine-1-carbonyl)benzyl)pyrido[4,3-d]pyrimidin-5(6H)-one] | 70
CCC[C@@H](CC)Nc1nc(N)nc2ccn(Cc3ccc(C(=O)N4CCNCC4)cc3)c(=O)c12 [Compound I-137, (R)-2-amino-4-(hexan-3-ylamino)-6-(4-(piperazine-1-carbonyl)benzyl)pyrido[4,3-d]pyrimidin-5(6H)-one] | 65

Target: T2, human TLR8 (Homo sapiens, UniProt Q9NR97)
T2 construct: host or cells: HEK-Blue hTLR8 (HEK293-derived reporter cells)
T2 sequence (Q9NR97 27-1041): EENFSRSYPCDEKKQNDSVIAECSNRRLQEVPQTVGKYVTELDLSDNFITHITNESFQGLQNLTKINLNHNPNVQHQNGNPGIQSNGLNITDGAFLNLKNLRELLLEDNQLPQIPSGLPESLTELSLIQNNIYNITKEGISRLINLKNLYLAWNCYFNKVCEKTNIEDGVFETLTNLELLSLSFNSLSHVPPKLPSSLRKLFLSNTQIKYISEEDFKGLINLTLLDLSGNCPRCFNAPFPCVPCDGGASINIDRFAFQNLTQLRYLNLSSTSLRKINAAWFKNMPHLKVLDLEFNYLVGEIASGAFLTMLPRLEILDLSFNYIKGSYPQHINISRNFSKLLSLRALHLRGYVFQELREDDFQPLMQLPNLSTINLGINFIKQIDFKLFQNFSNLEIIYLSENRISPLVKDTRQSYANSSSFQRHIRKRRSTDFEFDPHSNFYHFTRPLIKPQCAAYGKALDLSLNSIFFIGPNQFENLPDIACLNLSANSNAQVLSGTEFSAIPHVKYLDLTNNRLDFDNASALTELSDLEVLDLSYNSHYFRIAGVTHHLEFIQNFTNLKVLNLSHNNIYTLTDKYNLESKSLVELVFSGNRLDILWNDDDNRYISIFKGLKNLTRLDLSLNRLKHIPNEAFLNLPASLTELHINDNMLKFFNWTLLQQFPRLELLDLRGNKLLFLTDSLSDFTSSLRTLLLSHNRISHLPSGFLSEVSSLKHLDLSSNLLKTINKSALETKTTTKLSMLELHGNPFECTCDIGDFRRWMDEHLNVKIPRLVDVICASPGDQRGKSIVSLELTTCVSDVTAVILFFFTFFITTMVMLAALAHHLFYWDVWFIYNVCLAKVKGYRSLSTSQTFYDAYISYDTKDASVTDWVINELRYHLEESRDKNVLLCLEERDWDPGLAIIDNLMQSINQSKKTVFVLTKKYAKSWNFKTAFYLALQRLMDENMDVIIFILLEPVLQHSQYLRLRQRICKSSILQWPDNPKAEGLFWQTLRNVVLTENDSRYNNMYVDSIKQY
Assay: HEK-Blue hTLR8 SEAP reporter gene agonist assay
Assay type: cell-based
Conditions: HEK-Blue hTLR8 cells, 16 to 22 hours incubation
Procedure: as §1, §2

Structure (SMILES) | EC50 [nM]
CCC[C@@H](C)Nc1nc(N)nc2ccn(Cc3ccc(CN4CC5(COC5)C4)nc3OC)c(=O)c12 [Compound I-188, (R)-6-((6-((2-oxa-6-azaspiro[3.3]heptan-6-yl)methyl)-2-methoxypyridin-3-yl)methyl)-2-amino-4-(pentan-2-ylamino)pyrido[4,3-d]pyrimidin-5(6H)-one] | 29
CCCCCCCCCC(=O)OC[C@H](CCC)Nc1nc(N)nc2ccn(Cc3ccc(CN4CCN(C)CC4)cc3OC)c(=O)c12 [Compound I-221] | 30
CCCCNc1nc(N)nc2ccn(Cc3ccc(CNCCO)cc3)c(=O)c12 [Compound I-34, 2-amino-4-(butylamino)-6-(4-(((2-hydroxyethyl)amino)methyl)benzyl)pyrido[4,3-d]pyrimidin-5(6H)-one] | 45
COCCNc1nc(N)nc2ccn(Cc3ccc(CN4CCCC4)cc3)c(=O)c12 [Compound I-21, 2-amino-4-((2-methoxyethyl)amino)-6-(4-(pyrrolidin-1-ylmethyl)benzyl)pyrido[4,3-d]pyrimidin-5(6H)-one] | 51
CCCCNc1nc(N)nc2ccn(Cc3ccc(CN4CCCC4)cn3)c(=O)c12 [Compound I-128, 2-amino-4-(butylamino)-6-((5-(pyrrolidin-1-ylmethyl)pyridin-2-yl)methyl)pyrido[4,3-d]pyrimidin-5(6H)-one] | 66
CCC[C@@H](C)Nc1nc(N)nc2ccn(Cc3ccc(CN(CCC)CCO)cc3)c(=O)c12 [Compound I-140, (R)-2-amino-6-(4-(((2-hydroxyethyl)(propyl)amino)methyl)benzyl)-4-(pentan-2-ylamino)pyrido[4,3-d]pyrimidin-5(6H)-one] | 30
CCC[C@@H](CO)Nc1nc(N)nc2ccn(Cc3ccc(CN4CCN(CCN)CC4)cc3OC)c(=O)c12 [Compound I-207, (S)-2-amino-6-(4-((4-(2-aminoethyl)piperazin-1-yl)methyl)-2-methoxybenzyl)-4-((1-hydroxypentan-2-yl)amino)pyrido[4,3-d]pyrimidin-5(6H)-one] | 44
CCC[C@@H](CO)Nc1nc(N)nc2ccn(Cc3ccc(CN4CCNCC4)cc3OC)c(=O)c12 [Compound I-191, (S)-2-amino-4-((1-hydroxypentan-2-yl)amino)-6-(2-methoxy-4-(piperazin-1-ylmethyl)benzyl)pyrido[4,3-d]pyrimidin-5(6H)-one] | 18
CCCCNc1nc(N)nc2ccn(Cc3cnc(CN4CCCC4)cn3)c(=O)c12 [Compound I-129, 2-amino-4-(butylamino)-6-((5-(pyrrolidin-1-ylmethyl)pyrazin-2-yl)methyl)pyrido[4,3-d]pyrimidin-5(6H)-one] | 77
CCCCCCCCCCCCCCCC(=O)OC[C@H](CCC)Nc1nc(N)nc2ccn(Cc3ccc(CN4CCN(C)CC4)cc3OC)c(=O)c12 [Compound I-222] | 9
CCC[C@@H](CO)Nc1nc(N)nc2ccn(Cc3ccc(CN(C)CCN)cc3OC)c(=O)c12 [Compound I-208] | 70
CCCCOC(=O)OC[C@H](CCC)Nc1nc(N)nc2ccn(Cc3ccc(CN4CCN(C)CC4)cc3OC)c(=O)c12 [Compound I-226] | 73
CCCC(C)Nc1nc(N)nc2ccn(Cc3ccc(CN4CCCC4)cc3)c(=O)c12 (stereo not shown) [Compound I-12, 2-amino-4-(pentan-2-ylamino)-6-(4-(pyrrolidin-1-ylmethyl)benzyl)pyrido[4,3-d]pyrimidin-5(6H)-one] | 97
CCCCNc1nc(N)nc2ccn(Cc3ccc(CN4CCCC4)c(F)c3)c(=O)c12 [Compound I-27, 2-amino-4-(butylamino)-6-(3-fluoro-4-(pyrrolidin-1-ylmethyl)benzyl)pyrido[4,3-d]pyrimidin-5(6H)-one] | 95
CCCCNc1nc(N)nc2ccn(Cc3ccc(CN(CCO)CCO)cc3)c(=O)c12 [Compound I-50, 2-amino-6-(4-((bis(2-hydroxyethyl)amino)methyl)benzyl)-4-(butylamino)pyrido[4,3-d]pyrimidin-5(6H)-one] | 51
CCCCNc1nc(N)nc2ccn(Cc3ccc(C(=O)N4CC5CC(C4)N5)cc3)c(=O)c12 [Compound I-19, 6-(4-(3,6-diazabicyclo[3.1.1]heptane-3-carbonyl)benzyl)-2-amino-4-(butylamino)pyri do[4,3-d]pyrimidin-5(6H)-one] | 55
